According to patent US20080287445A1, “Prokineticin 2 receptor antagonists” (priority 2005, published 2008):
Values joined by “and” are separate entries in the source; they are usually repeats but may differ in a detail not shown here. Identical values can stand only once.

Biological target: T1, GPR73 (prokineticin 1 receptor) (Homo sapiens, UniProt Q8TCW9)
T1 construct: expressed in transfected cells; host or cells: HEK 293
Assay: PK1 functional assay: Ca2+ mobilization screening for PK1 antagonists on the FLIPR
Format: cell-based
Conditions: HEK 293 GPR73 cells, multiple values = multiple testing; for inhibition at 10 µM: HEK293, 10 μM compound, read-out: Ca^2+ Mobilization % Inh @ 10 μM; for IC50: PK1 ligand preparation at its EC50, read-out: Ca^2+ Mobilization IC50; for Ca^2+ Mobilization % Inh @ 10 μM: 10 μM compound
Description: At a time of 24 h prior to running the assay, in cell culture media (DMEM containing high Glucose and L-glutamine, 10% FBS, 1% Pen/Streptomycin, 1% Sodium Pyruvate, 20 mM HEPES, Zeocin 200 mg/L), 100 μL of 1.3*10^6/ml HEK 293 GPR73 (prokineticin 1 receptor) expressing cells were plated in a 96 well poly-d-lysine coated plate (Costar), and incubated at 37 C and 5% CO2. On the day in which the assay was run, the media was removed and 200 μL of 5× Calcium Plus Dye (Molecular Devices) which was previously resuspended with 200 mL of assay buffer [HBSS w/Ca^2+ and Mg^2+ w/o phenol red, 20 mM HEPES, 0.1% BSA, 10 mL probenecid (710 mg probenecid in 5 mL of 1N NaOH, to which was then added 5 mL HBSS containing 20 mM HEPES)] was added to each well of the 96-well plate. The plate was incubated at 37 C and 5% CO2 for 30 min in dark. The plate was removed and allowed to reach RT for 15 min in the dark. The assay was then run on the FLIPR. In Brief: base line read for 1 min, compound added (25 μL) and incubated for 4 min, 15 seconds, PK1 ligand preparation added (25 μL) for a final concentration of a previously determined EC50 and fluorescence was counted for 1 min, 45 seconds. Baseline is described as the amount of relative fluorescence read when buffer alone is added to cells. Baseline was subtracted from all wells. Percent of control was calculated as follows:
(Baseline subtracted well value is divided by baseline subtracted max value)*100. Percent inhibition is 100 minus the percent of control value.
The IC50 is defined as the amount of a given compound required to inhibit 50% of the maximum signal that is generated by the concentration of PK1 preparation used in our assay. IC50 values were calculated using GraphPad Prism.

T1 sequence (Q8TCW9 whole entry, species assumed): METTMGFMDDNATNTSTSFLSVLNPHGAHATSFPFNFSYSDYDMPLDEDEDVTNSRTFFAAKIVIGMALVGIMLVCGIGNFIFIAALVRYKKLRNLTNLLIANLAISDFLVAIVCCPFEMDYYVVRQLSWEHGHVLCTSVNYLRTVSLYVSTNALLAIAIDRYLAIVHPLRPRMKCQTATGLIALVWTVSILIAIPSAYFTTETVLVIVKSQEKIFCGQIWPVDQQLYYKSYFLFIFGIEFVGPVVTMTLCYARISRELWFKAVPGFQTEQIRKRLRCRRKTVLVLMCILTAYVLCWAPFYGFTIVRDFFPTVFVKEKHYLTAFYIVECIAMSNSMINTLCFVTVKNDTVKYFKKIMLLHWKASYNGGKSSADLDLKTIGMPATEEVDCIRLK

inhibition at 10 µM	IC50	Ca^2+ Mobilization % Inh @ 10 μM	SMILES
37%	> 10 µM		COc1ccc(Cn2c(NCCc3ccccn3)nc(=O)n(Cc3ccc(Cl)c(Cl)c3)c2=O)cc1 [Cpd 1]
47%	> 10 µM		COc1ccc(Cn2c(NCc3cccnc3)nc(=O)n(Cc3ccc(Cl)c(Cl)c3)c2=O)cc1 [Cpd 2]
94%	0.357 µM		COc1ccc(Cn2c(NCc3ccc(N)cn3)nc(=O)n(Cc3ccc(Cl)cc3)c2=O)cc1 [Cpd 4]
81%	1.12 µM		COc1ccc(Cn2c(NCc3ccc(N)nc3)nc(=O)n(Cc3ccc(Cl)cc3)c2=O)cc1 [Cpd 5]
90%	0.176 µM		COc1ccc(Cn2c(NCc3cncnc3N)nc(=O)n(Cc3ccc(OC)cc3)c2=O)cc1 [Cpd 6]
60%	6.2 µM		COc1ccc(Cn2c(CNCc3cccnc3N)cc(=O)n(Cc3ccc(OC)cc3)c2=O)cc1 [Cpd 7, 6-{[(2-Amino-pyridin-3-ylmethyl)-amino]-methyl}-1,3-bis-(4-methoxy-benzyl)-1H-pyrimidine-2,4-dione]
89%	0.535 µM and 0.669 µM	86%	COc1ccc(Cn2c(NCc3cccnc3N)nc(=O)n(Cc3ccc(F)cc3)c2=O)cc1 [Cpd 8]
95%	0.295 µM		COc1ccc(Cn2c(NCc3cc4ccccc4nc3N)nc(=O)n(Cc3ccc(OC)cc3)c2=O)cc1 [Cpd 9]
82%	1.25 µM		COc1ccc(Cn2c(NCCc3cccnc3N)nc(=O)n(Cc3ccc(F)cc3)c2=O)cc1 [Cpd 10]
54%	6.79 µM		COc1ccc(Cn2c(NCc3cccnc3N3CCCC3)nc(=O)n(Cc3ccc(F)cc3)c2=O)cc1 [Cpd 11]
74%	1.29 µM		COc1ccc(Cn2c(NCc3cccnc3N3CCNCC3)nc(=O)n(Cc3ccc(OC)cc3)c2=O)cc1 [Cpd 12]
72%	0.544 µM		COc1ccc(Cn2c(NCc3cccnc3N3CCCCC3)nc(=O)n(Cc3ccc(OC)cc3)c2=O)cc1 [Cpd 13]
90%	0.793 µM		CNc1ncccc1CNc1nc(=O)n(Cc2ccc(F)cc2)c(=O)n1Cc1ccc(OC)cc1 [Cpd 14]
95%	0.327 µM		CCCNc1ncccc1CNc1nc(=O)n(Cc2ccc(F)cc2)c(=O)n1Cc1ccc(OC)cc1 [Cpd 15]
89%	0.348 µM		CCCCNc1ncccc1CNc1nc(=O)n(Cc2ccc(F)cc2)c(=O)n1Cc1ccc(OC)cc1 [Cpd 16]
73%	2.43 µM		COc1ccc(Cn2c(NCc3cccnc3N3CCOCC3)nc(=O)n(Cc3ccc(F)cc3)c2=O)cc1 [Cpd 17]
58%	5.48 µM		COc1ccc(Cn2c(NCc3cccnc3N3CCSCC3)nc(=O)n(Cc3ccc(F)cc3)c2=O)cc1 [Cpd 18]
83%	0.885 µM		CCNc1ncccc1CNc1nc(=O)n(Cc2ccc(F)cc2)c(=O)n1Cc1ccc(OC)cc1 [Cpd 19]
95%	0.177 µM		COc1ccc(Cn2c(NCc3cccnc3N3CCOCC3)nc(=O)n(Cc3ccc(OC)cc3)c2=O)cc1 [Cpd 20]
85%	0.656 µM		COc1ccc(Cn2c(NCc3ccc4c(n3)NCCC4)nc(=O)n(Cc3ccc(F)cc3)c2=O)cc1 [Cpd 21, 3-(4-Fluoro-benzyl)-1-(4-methoxy-benzyl)-6-[(5,6,7,8-tetrahydro-[1,8]naphthyridin-2-ylmethyl)-amino]-1H-[1,3,5]triazine-2,4-dione]
88%		96% and 97%	COc1ccc(Cn2c(NCc3cnc(C)cc3C)nc(=O)n(Cc3ccc(OC)cc3)c2=O)cc1 [Cpd 22, 6-[(4,6-Dimethyl-pyridin-3-ylmethyl)-amino]-1,3-bis-(4-methoxy-benzyl)-1H-[1,3,5]triazine-2,4-dione]
97%	0.231 µM		COc1ccc(Cn2c(NCc3cccnc3N)nc(=O)n(Cc3cc4ccccc4o3)c2=O)cc1 [Cpd 23]
60%	0.115 µM		COc1ccc(Cn2c(NCc3cccnc3N)nc(=O)n(Cc3ccc(SC)cc3)c2=O)cc1 [Cpd 24]
89%	2.74 µM		COc1ccc(Cn2c(NCc3ccc(-c4ccc(F)cc4)nc3)nc(=O)n(Cc3ccc(OC)cc3)c2=O)cc1 [Cpd 25]

inhibition at 10 µM	IC50	Ca^2+ Mobilization % Inh @ 10 μM	SMILES
84%	0.045 µM		COc1ccc(Cn2c(NCc3cccnc3N)cc(=O)n(Cc3ccc(OC)cc3)c2=O)cc1 [Cpd 26]
102%	0.088 µM		COc1ccc(Cn2c(NCc3cccnc3NCCN(C)C)nc(=O)n(Cc3ccc(F)cc3)c2=O)cc1 [Cpd 27]
85%		90% and 91%	COCCNc1ncccc1CNc1nc(=O)n(Cc2ccc(F)cc2)c(=O)n1Cc1ccc(OC)cc1 [Cpd 28, 3-(4-Fluoro-benzyl)-1-(4-methoxy-benzyl)-6-{[2-(2-methoxy-ethylamino)-pyridin-3-ylmethyl]-amino}-1H-[1,3,5]triazine-2,4-dione]
111%	0.11 µM		COc1ccc(Cn2c(NCc3cccnc3NCCO)nc(=O)n(Cc3ccc(F)cc3)c2=O)cc1 [Cpd 29]
68%	1.24 µM		COc1ccc(Cn2c(NCc3cccnc3NCCN)nc(=O)n(Cc3ccc(F)cc3)c2=O)cc1 [Cpd 30]
91%	0.939 µM		COc1ccc(Cn2c(NCc3cccnc3NC3CCCCC3)nc(=O)n(Cc3ccc(F)cc3)c2=O)cc1 [Cpd 31]
78%	1.22 µM		COc1ccc(Cn2c(NCc3ccc[n+]([O-])c3N)nc(=O)n(Cc3ccc(OC)cc3)c2=O)cc1 [Cpd 32]
95%	0.049 µM and 0.077 µM	102%	COc1ccc(Cn2c(=O)nc(NCc3cccnc3N)n(Cc3ccc(O)cc3)c2=O)cc1 [Cpd 33, 6-[(2-Amino-pyridin-3-ylmethyl)-amino]-1-(4-hydroxy-benzyl)-3-(4-methoxy-benzyl)-1H-[1,3,5]triazine-2,4-dione]
98%	0.081 µM		CCCNc1ncccc1CNc1nc(=O)n(Cc2ccc(OC)cc2)c(=O)n1Cc1ccc(OC)cc1 [Cpd 34]
85%	0.034 µM		COc1ccc(Cn2c(=O)nc(NCc3cccnc3N)n(Cc3ccc(OC(F)F)cc3)c2=O)cc1 [Cpd 35, 6-[(2-Amino-pyridin-3-ylmethyl)-amino]-1-(4-difluoromethoxy-benzyl)-3-(4-methoxy-benzyl)-1H-[1,3,5]triazine-2,4-dione]
84%	0.27 µM		COC(=O)c1ccc(Cn2c(NCc3cccnc3N)nc(=O)n(Cc3ccc(OC)cc3)c2=O)cc1 [Cpd 36]
86%	0.25 µM		COc1ccc(Cn2c(=O)nc(NCc3cccnc3N)n(Cc3ccc(NC(C)=O)cc3)c2=O)cc1 [Cpd 37]
91%	0.391 µM		COc1ccc(Cn2c(=O)nc(NCc3cccnc3N)n(Cc3ccc(OC(F)(F)F)cc3)c2=O)cc1 [Cpd 38]
92%	0.063 µM and 0.082 µM	95%	COc1ccc(Cn2c(NCc3ccccn3)nc(=O)n(Cc3ccc(OC)cc3)c2=O)cc1 [Cpd 39]
72%	1.06 µM		COc1ccc(Cn2c(NCc3ccncc3)nc(=O)n(Cc3ccc(OC)cc3)c2=O)cc1 [Cpd 41]
49%	> 10 µM		COc1ccc(Cn2c(NCc3cccnc3N)nc(=O)n(Cc3cccc(OC)c3)c2=O)cc1 [Cpd 42]
78%	0.801 µM		COc1ccc(Cn2c(NCc3cccnc3N)nc(=O)n(Cc3ccccc3)c2=O)cc1 [Cpd 43]
66%	2.02 µM		COc1ccc(Cn2c(NCc3cccnc3N)nc(=O)n(Cc3ccc(C#N)cc3)c2=O)cc1 [Cpd 44]
40%	> 10 µM		COc1ccc(Cn2c(NCc3cccnc3N)nc(=O)n(Cc3ccc(OC(F)(F)F)cc3)c2=O)cc1 [Cpd 45]
80%	0.522 µM		CCOc1ccc(Cn2c(=O)nc(NCc3cccnc3N)n(Cc3ccc(OC)cc3)c2=O)cc1 [Cpd 46]
80%	0.826 µM		COc1ccc(Cn2c(NCc3cccnc3N)nc(=O)n(Cc3ccc([N+](=O)[O-])cc3)c2=O)cc1 [Cpd 47]
75%	0.956 µM		C=CCC(c1ccc(OC)cc1)n1c(=O)nc(NCc2cccnc2N)n(Cc2ccc(OC)cc2)c1=O (stereo not shown) [Cpd 48]
64%	3.17 µM		COc1ccc(Cn2c(NCc3cccnc3N)nc(=O)n(Cc3ccc(C(F)(F)F)cc3)c2=O)cc1 [Cpd 49]
